Where two headings read alike, the source gives them in different places.
Key:
in vivo = assay: in vivo; set-up: species or system Male SD rats; settings: rat, plasma; for AUC at 8 h: 0-8 hr, read-out: AUC0^8 (Area under the plasma concentration time curve)
Method: In the same manner as Experiment Example 1 mentioned above, 960 mg of PEG-6000, 20 mg of lansoprazole and 20 mg of sodium oleate were evenly melted and dispersed. The resulting dispersion was filled in 200 mg portions into metallic rectal suppository containers for rats and cooled to provide composition for rectal administration for rats. In addition, using 960 mg of Witepsol W-35 (Dynamit Nobel), 20 mg of lansoprazole and 20 mg of sodium oleate, composition for rectal administration for rats in otherwise the same manner as above.
Male SD rats weighing 250-280 g (Japan Clea) were provided. The animals were allowed food and water ad libitum and, then, fasted for about 16 hours (water was available ad libitum). Using the rats fasted for about 16 hours, the composition for rectal administration prepared above were inserted into the anus and, to prevent expulsion of the drug, the perianal skin was clipped.
For control purposes, 80 mg of lansoprazole, 1.5 ml of PEG-400 and 9.5 ml of 0.5% aqueous solution of sodium hydrogen carbonate were admixed to prepare an injectable solution. This solution was injected, in a volume of 0.25 ml, into the femoral vein of each rat (intravenous dosing).
At 0.08, 0.17, 0.25, 0.5, 1.0, 2.0, 4.0 and 8.0 hours after administration,the blood was drawn from the caudal vein of rats using a blood sampling tube containing a small amount of heparin. Each blood sample was centrifuged (3000 rpm, 10 min.) to separate the plasma (0.1 ml) and lansoprazole in each plasma sample was assayed. The assay method was as follows. To 0.1 ml of plasma were added 0.5 ml of 0.5% aqueous solution of sodium hydrogen carbonate and 3 ml of chloroform and the mixture was shaken vigorously for about 5 minutes and centrifuged at 2500 rpm for about 5 minutes. The under layer (chloroform layer), 2 ml, was taken and the solvent chloform was evaporated off by blasting with nitrogen gas. The residue was redissolved in 0.2 ml of HPLC mobile phase and subjected to HPLC analysis (injection amount 50 μl) under the following conditions.
Column: YMC A-303 (5 μm), 4.6 mm in internal diameter and 25 cm in length (YMC).
Mobile phase: a mixture of water, acetonitrile and triethylamine (60:40:1) adjusted to pH 7.0 with phosphoric acid.
Detection: A UV spectrophotometer (exciting wavelength 285 nm)
Column temperature: Room temperature

[1] = Stability of lansoprazole composition for rectal administration: change in color on storage at 40° C. and 75% relative humidity (Experimental Example 2); format: physicochemical; settings: relative humidity 75%, conclusion from Table 2
Method: (§1) After each of them was melted by warming at 60° C., 20 mg of lansoprazole and a specified amount [See Table 1] of sodium oleate were admixed with the base to prepare a composition. Each composition was stored at room temperature (25° C.) and the change in color was evaluated by comparing it with the composition prior to storage.
Using different fatty acid salts, the stability of lansoprazole in compositions for rectal administration was evaluated by the same procedure as Experiment Example 1. EPG-4000 or Witepsol W-35 was used as the base and sodium oleate, sodium palmitate or sodium caprate was used as the fatty acid salt, each in the amount indicated in Table 2. In this stability test, the test compositions were stored at a temperature of 40° C. and a relative humidity of 75%.

[2] = Stability of lansoprazole composition for rectal administration: change in color on storage at room temperature (25° C.) (Experiment Example 1); format: physicochemical; settings: conclusion from Table 1
Method: Using PEG-4000 (Wako Pure Chemical Industries, Japan) or Witepsol W-35 (Dynamit Novel, Germany) as a base for rectal administration, the stability of lansoprazole in the composition was compared between the inclusion of sodium oleate and the exclusion of sodium oleate.
as §1

[3] = Rectal, Oleaginous base (Witepsol W-35) with sodium oleate
[4] = Rectal, Water-soluble base (PEG-6000) with sodium oleate

What does the source list for `Cc1c(OCC(F)(F)F)ccnc1C[S+]([O-])c1nc2ccccc2[nH]1` (stereo not shown) [lansoprazole, 2-[2-[3-methyl-4-(2,2,2-trifluoroethoxy)pyridyl]methylsulfinyl]benzimidazole]?
AUC at 8 h (in vivo; [3]): 1080 ng·h/mL; concentration at 0.08 h (in vivo; [3]): 90 ng/mL; concentration at 0.17 h (in vivo; [3]): 140 ng/mL; concentration at 0.25 h (in vivo; [3]): 210 ng/mL; concentration at 0.5 h (in vivo; [3]): 310 ng/mL; concentration at 1 h (in vivo; [3]): 360 ng/mL; concentration at 2 h (in vivo; [3]): 180 ng/mL; concentration at 4 h (in vivo; [3]): 90 ng/mL; concentration at 8 h (in vivo; [3]): 50 ng/mL; AUC at 8 h (in vivo; [4]): 890 ng·h/mL; concentration at 0.08 h (in vivo; [4]): 160 ng/mL; concentration at 0.17 h (in vivo; [4]): 240 ng/mL; concentration at 0.25 h (in vivo; [4]): 310 ng/mL; concentration at 0.5 h (in vivo; [4]): 420 ng/mL; concentration at 1 h (in vivo; [4]): 330 ng/mL; concentration at 2 h (in vivo; [4]): 110 ng/mL; concentration at 4 h (in vivo; [4]): 60 ng/mL; concentration at 8 h (in vivo; [4]): 30 ng/mL; AUC at 8 h (in vivo; iv): 3860 ng·h/mL; concentration at 0.08 h (in vivo; iv): 6960 ng/mL; concentration at 0.17 h (in vivo; iv): 5390 ng/mL; concentration at 0.25 h (in vivo; iv): 4830 ng/mL; concentration at 0.5 h (in vivo; iv): 3280 ng/mL; concentration at 1 h (in vivo; iv): 910 ng/mL; concentration at 2 h (in vivo; iv): 70 ng/mL; concentration at 4 h (in vivo; iv): 5 ng/mL; concentration at 8 h (in vivo; iv): 2 ng/mL

For `CCCCCCCCCC(=O)[O-].[Na+]` [sodium caprate], which “contribution to the stability of the active drug” value (shortened to “contribution to the stability”) [1] is on record?
The value was “contributed a great deal to the stability of the active drug”.

With `CCCCCCCC/C=C\CCCCCCCC(=O)[O-].[Na+]` [sodium oleate] as the compound, how does the stabilization of lansoprazole [2] read?
Its stabilization of lansoprazole is “stabilized lansoprazole”.

What about the “contribution to the stability” value [1] of the same compound?
Its value is “contributed a great deal to the stability of the active drug”.

For `CCCCCCCCCCCCCCCC(=O)[O-].[Na+]` [sodium palmitate], which “contribution to the stability” value [1] is on record?
The value was “contributed a great deal to the stability of the active drug”.

Reference: patent US5635520A, “Anti-ulcer compositions suitable for rectal administration” (Takeda Chemical Industries, Ltd., priority 1993, dated 1997)
